Assays:
[1] = format: in vivo, human
[2] = format: in vivo, human; remark: listed apart in the source
[3] = 28-day GLP dog toxicology studies; format: in vivo; conditions: dog (most sensitive species)
[4] = Projected human oral half-life; conditions: projection before first-in-human dosing
[5] = multiple doses of 150 mg and 300 mg once daily, individual patients
[6] = RP2D 600 mg twice a day (20 patients), any grade

What does the source list for C=C(F)C(=O)N1CCN(c2nc(OC[C@@H]3CCCN3C)nc3c2CCN(c2cccc4cccc(Cl)c24)C3)C[C@@H]1CC#N [Adagrasib]?
PTR [1, 5]: approximately three; drug accumulation [1, 5]: approximately three- to four-fold; accumulation of adagrasib ([1]; multiple doses of 600 mg twice a day, steady state): approximately five- to six-fold; DLTs ([2]; 150 mg, 300 mg, 600 mg once daily, one patient each): No DLTs; patients who experienced DLTs ([2]; 600 mg twice a day, DLT-evaluable patients): three of the 18; patients who experienced a DLT ([2]; 600 mg twice a day, first cohort of six evaluable patients): one patient; TRAE fatigue, grade 3/4 ([2]; RP2D 600 mg twice a day): 15.0%; TRAE diarrhea [2, 6]: 70.0%; TRAE fatigue [2, 6]: 45.0%; TRAE nausea [2, 6]: 80.0%; TRAE vomiting [2, 6]: 50.0%; maximum tolerated dose ([2]; all dose cohorts): No maximum tolerated dose was formally defined; patients who experienced one or more DLTs ([2]; all dose levels, 23 DLT-evaluable patients): 21.7%; recommended phase II dose (RP2D) ([2]; oral, based on safety, tolerability and PK): 600 mg twice a day; highest nonseverely toxic dose (HNSTD) [3]: 25 mg/kg/day; projected human oral t1/2 [4]: approximately 15 hours

Source: paper PMC9362872 (Journal of Clinical Oncology, 2022)
